Experimental data reported in patent US20240368150A1 (Hoffmann-La Roche Inc., priority 2021, published 2024).
Like-named read-outs stand apart in the source and are kept apart here.

How the values were obtained:
primary human T-cells [1] = experiment: Proliferation assay after 5 days (CellTiter-Glo, CD3 stimulation; PBS counter screen); type: cell-based; details: Homo sapiens, T-cell, 120 h, CD3 stimulation; for Emax: 5 days, normalized to reference compound A1 as stimulator control = 100%, DMSO neutral control, read-out: Emax proliferation (% activation); for EC50: primary human T-cells, CellTiter-Glo after 5 days, EC50 of fitted sigmoidal curve, read-out: Tcell Proliferation CD3 EC50
Summary of the method: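 After compound addition to medium-only plates, cells are cultured 5 days, equilibrated to room temperature, mixed with an equal volume of CellTiter-Glo 2.0 and rocked 15 min before luminescence is read. Signal reflects ATP content, taken as proportional to cell number.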

primary human T-cells [2] = test system: primary human T-cells
Procedure: As readouts for T-cell activation, IL2 secretion after 24 hours and proliferation after 5 days was measured. Increases in IL2 secretion and proliferation upon compound treatment were assessed as the % of the maximum of reference compound A1. […] As a counter screen and to make sure that no unwanted TCR-independent activation was triggered, PBS conditions were run for all compounds.
For coating of plates, PBS++ with PBS−− or PBS++ with CD3 antibody (concentration depending on donor and determined by CD3 titrations) was added 100 μl/well to Poly-D Lysine coated 96-well plates. Plates were sealed and incubated at room temperature for 3 hours on a table-top rocking platform. After incubation, plates were washed once with PBS−− and filled with 40 μl/well culture medium only. Compounds were then added (see next section) to medium only plates. After 3 hours of culturing the T-cells, cells were filtered through a cell strainer (Miltenyi Biotech, #130-041-407), counted again and concentration was adjusted to 1.25 Mio/ml.
Cells were then seeded 80 μl/well to the 40 μl/well including dispensed compounds according to plate layout. By adding cells, compounds were further diluted 1:3, and resulting in 100 k cells/120 μl/well. After 24 hours 40 μl of supernatant was collected carefully from the top while not disturbing the cells and transferred into a round bottom 96 well plate. Collected and frozen supernatant was used for detection of IL2 using the IL-2 Human ProQuantum Immunoassay Kit (Invitrogen) or using the Human IL-2 ELISA Kit (Thermo Fisher).
Compounds were added in a 5 or 6pt dose response with the Tecan D300e Digital Dispenser, all conditions 3 times more concentrated than the end-concentration, since cells are added afterwards (80 μl cells to 40 μl prepared medium with treatment). The DR was starting at 20 μM or 10 μM final top concentration and a dilution factor of 3.333. The positive control was the reference compound A1 that was added in a dose response as well, additionally to 3 wells of only 20 μM representing the positive stimulator control. All wells were normalized with DMSO to a final concentration of 0.6% (0.2% end-concentration).
The immunoassay is done following the manufacturer's manual (Invitrogen, #A35603). Additional information: For the immunoassay, MicroAmp™ EnduraPlate™ Optical 384-Well plates are used. Frozen supernatant is thawed and centrifuged for 5 minutes at 1000×g, both steps at 4° C. After centrifugation, required sample amount is taken from the top, and in a separate LightCycler V-bottom plate (working plate) diluted with assay dilution buffer, dilution factor depending on the PBS or CD3 condition but at least 1:3. IL-2 standard and blanks are prepared in the same V-bottom plate, standard with a range of 0.0128-5000 pg/ml (extended version). After preparation, 5 μl of sample dilutions or standard/blanks are transferred to the optical 384-well plate (assay plate) and the 10 μl reaction protocol is being followed. For measurement, the QuantStudio 12K Flex system is used.
ELISA is done following the manufacturer's manual (Thermo Fisher Scientific, #88-7025-88). Additional information: For the ELISA Nunc MaxiSorp 96 well plates are used. Frozen supernatant is thawed and centrifuged for 5 minutes at 1000×g, both steps at 4° C. After that, required sample amount is taken from the top, and in a separate V-bottom plate diluted with ELISA diluent, dilution factor depending on the PBS or CD3 condition. IL-2 standard and blanks are prepared in the same V-bottom plate. After preparation, 50 μl of sample dilutions and 100 μl of standard or blanks are transferred to the Nunc plates.
CD3 and PBS plates were analysed separately in Genedata Screener using Roche Normalization PCT_POS_CTRL with DMSO set as Neutral Control and 20 μM of the reference compound A1 set as Stimulator Control/100%.
For CD3 conditions EC50 and Emax of the fitted sigmoidal curve were reported.

EC50 (primary human T-cells [2])	SMILES	Emax (primary human T-cells [1])	EC50 (primary human T-cells [1])
500 nM	N[C@H]1CS(=O)(=O)c2cc(F)c(-c3nnc(C4CNCC(F)(F)C4)o3)cc2N(Cc2ccc(Cl)cc2)C1=O (stereo partly drawn) [Example 160, (3R)-3-amino-5-[(4-chlorophenyl)methyl]-7-[5-(5,5-difluoro-3-piperidyl)-1,3,4-oxadiazol-2-yl]-8-fluoro-1,1-dioxo-2,3-dihydro-1λ^6,5-benzothiazepin-4-one]	96%	382 nM
1150 nM	CC1(c2nnc(-c3cc4c(cc3F)S(=O)(=O)C[C@H](N)C(=O)N4Cc3ccc(Cl)cc3)o2)CCNCC1 [Example 161, (3R)-3-amino-5-[(4-chlorophenyl)methyl]-8-fluoro-7-[5-(4-methyl-4-piperidyl)-1,3,4-oxadiazol-2-yl]-1,1-dioxo-2,3-dihydro-1λ^6,5-benzothiazepin-4-one]	73%	5480 nM
383 nM	CC(=O)N1CC(c2nnc(-c3cc4c(cc3F)S(=O)(=O)C[C@H](N)C(=O)N4Cc3ccc(Cl)cc3)o2)CC(F)(F)C1 (stereo partly drawn) [Example 162, (3R)-7-[5-(1-acetyl-5,5-difluoro-3-piperidyl)-1,3,4-oxadiazol-2-yl]-3-amino-5-[(4-chlorophenyl)methyl]-8-fluoro-1,1-dioxo-2,3-dihydro-1λ^6,5-benzothiazepin-4-one]	84%	628 nM
99.7 nM	COC(=O)N1CC(c2nnc(-c3cc4c(cc3F)S(=O)(=O)C[C@H](N)C(=O)N4Cc3ccc(Cl)cc3)o2)CC(F)(F)C1 (stereo partly drawn) [Example 163, methyl 3,3-difluoro-5-[5-[(3R)-3-amino-5-[(4-chlorophenyl)methyl]-8-fluoro-1,1,4-trioxo-2,3-dihydro-1λ^6,5-benzothiazepin-7-yl]-1,3,4-oxadiazol-2-yl]piperidine-1-carboxylate]	118%	51.4 nM
708 nM	CS(=O)(=O)N1CC(c2nnc(-c3cc4c(cc3F)S(=O)(=O)C[C@H](N)C(=O)N4Cc3ccc(Cl)cc3)o2)CC(F)(F)C1 (stereo partly drawn) [Example 164, (3R)-3-amino-5-[(4-chlorophenyl)methyl]-7-[5-(5,5-difluoro-1-methylsulfonyl-3-piperidyl)-1,3,4-oxadiazol-2-yl]-8-fluoro-1,1-dioxo-2,3-dihydro-1λ^6,5-benzothiazepin-4-one]	82%	292 nM
458 nM	COC(=O)N1CCCC(c2nnc(-c3cc4c(cc3F)S(=O)(=O)C[C@H](N)C(=O)N4Cc3ccc(Cl)cc3)o2)C1 (stereo partly drawn) [Example 165, methyl 3-[5-[(3R)-3-amino-5-[(4-chlorophenyl)methyl]-8-fluoro-1,1,4-trioxo-2,3-dihydro-1λ^6,5-benzothiazepin-7-yl]-1,3,4-oxadiazol-2-yl]piperidine-1-carboxylate]	85%	309 nM
567 nM	COC(=O)N1CCC(c2nnc(-c3cc4c(cc3F)S(=O)(=O)C[C@H](N)C(=O)N4Cc3ccc(Cl)cc3)o2)C1 (stereo partly drawn) [Example 166, methyl 3-[5-[(3R)-3-amino-5-[(4-chlorophenyl)methyl]-8-fluoro-1,1,4-trioxo-2,3-dihydro-1λ^6,5-benzothiazepin-7-yl]-1,3,4-oxadiazol-2-yl]pyrrolidine-1-carboxylate]	104%	904 nM
122 nM	COC(=O)N1CCC(c2nnc(-c3cc4c(cc3F)S(=O)(=O)C[C@H](N)C(=O)N4Cc3ccc(Cl)cc3)o2)CC1 [Example 167, methyl 4-[5-[(3R)-3-amino-5-[(4-chlorophenyl)methyl]-8-fluoro-1,1,4-trioxo-2,3-dihydro-1λ^6,5-benzothiazepin-7-yl]-1,3,4-oxadiazol-2-yl]piperidine-1-carboxylate]	100%	208 nM
1590 nM	CC(=O)N1CCC(c2nnc(-c3cc4c(cc3F)S(=O)(=O)C[C@H](N)C(=O)N4Cc3ccc(Cl)cc3)o2)CC1 [Example 168, (3R)-7-[5-(1-acetyl-4-piperidyl)-1,3,4-oxadiazol-2-yl]-3-amino-5-[(4-chlorophenyl)methyl]-8-fluoro-1,1-dioxo-2,3-dihydro-1λ^6,5-benzothiazepin-4-one]	63%	4950 nM
3340 nM	CC(=O)N1CCC(C)(c2nnc(-c3cc4c(cc3F)S(=O)(=O)C[C@H](N)C(=O)N4Cc3ccc(Cl)cc3)o2)CC1 [Example 169, (3R)-7-[5-(1-acetyl-4-methyl-4-piperidyl)-1,3,4-oxadiazol-2-yl]-3-amino-5-[(4-chlorophenyl)methyl]-8-fluoro-1,1-dioxo-2,3-dihydro-1λ^6,5-benzothiazepin-4-one]	95%	2470 nM
405 nM	CC1(c2nnc(-c3cc4c(cc3F)S(=O)(=O)C[C@H](N)C(=O)N4Cc3ccc(Cl)cc3)o2)CCN(S(C)(=O)=O)CC1 [Example 170, (3R)-3-amino-5-[(4-chlorophenyl)methyl]-8-fluoro-7-[5-(4-methyl-1-methylsulfonyl-4-piperidyl)-1,3,4-oxadiazol-2-yl]-1,1-dioxo-2,3-dihydro-1λ^6,5-benzothiazepin-4-one]	97%	1500 nM
1670 nM	COC(=O)N1CC(c2nnc(-c3cc4c(cc3F)S(=O)(=O)C[C@H](N)C(=O)N4Cc3ccc(Cl)cc3)o2)C1 [Example 172, methyl 3-[5-[(3R)-3-amino-5-[(4-chlorophenyl)methyl]-8-fluoro-1,1,4-trioxo-2,3-dihydro-1λ^6,5-benzothiazepin-7-yl]-1,3,4-oxadiazol-2-yl]azetidine-1-carboxylate]	190%	2940 nM
> 10000 nM	CC(=O)N1CC(c2nnc(-c3cc4c(cc3F)S(=O)(=O)C[C@H](N)C(=O)N4Cc3ccc(Cl)cc3)o2)C2(CC2)C1 (stereo partly drawn) [Example 175, (3R)-7-[5-(5-acetyl-5-azaspiro[2.4]heptan-7-yl)-1,3,4-oxadiazol-2-yl]-3-amino-5-[(4-chlorophenyl)methyl]-8-fluoro-1,1-dioxo-2,3-dihydro-1λ^6,5-benzothiazepin-4-one]	62%	7040 nM
2510 nM	CS(=O)(=O)N1CC(c2nnc(-c3cc4c(cc3F)S(=O)(=O)C[C@H](N)C(=O)N4Cc3ccc(Cl)cc3)o2)C2(CC2)C1 (stereo partly drawn) [Example 176, (3R)-3-amino-5-[(4-chlorophenyl)methyl]-8-fluoro-7-[5-(5-methylsulfonyl-5-azaspiro[2.4]heptan-7-yl)-1,3,4-oxadiazol-2-yl]-1,1-dioxo-2,3-dihydro-1λ^6,5-benzothiazepin-4-one]	70%	4280 nM
1440 nM	COC(=O)N1CC(c2nnc(-c3cc4c(cc3F)S(=O)(=O)C[C@H](N)C(=O)N4Cc3ccc(Cl)cc3)o2)C2(CC2)C1 (stereo partly drawn) [Example 177, methyl 7-[5-[(3R)-3-amino-5-[(4-chlorophenyl)methyl]-8-fluoro-1,1,4-trioxo-2,3-dihydro-1λ^6,5-benzothiazepin-7-yl]-1,3,4-oxadiazol-2-yl]-5-azaspiro[2.4]heptane-5-carboxylate]	68%	788 nM
333 nM	COC(=O)N1CCC2CC2(c2nnc(-c3cc4c(cc3F)S(=O)(=O)C[C@H](N)C(=O)N4Cc3ccc(Cl)cc3)o2)C1 (stereo partly drawn) [Example 178, methyl 1-[5-[(3R)-3-amino-5-[(4-chlorophenyl)methyl]-8-fluoro-1,1,4-trioxo-2,3-dihydro-1λ^6,5-benzothiazepin-7-yl]-1,3,4-oxadiazol-2-yl]-3-azabicyclo[4.1.0]heptane-3-carboxylate]	105%	206 nM
335 nM	CS(=O)(=O)N1CCC2CC2(c2nnc(-c3cc4c(cc3F)S(=O)(=O)C[C@H](N)C(=O)N4Cc3ccc(Cl)cc3)o2)C1 (stereo partly drawn) [Example 179, (3R)-3-amino-5-[(4-chlorophenyl)methyl]-8-fluoro-7-[5-(3-methylsulfonyl-3-azabicyclo[4.1.0]heptan-1-yl)-1,3,4-oxadiazol-2-yl]-1,1-dioxo-2,3-dihydro-1λ^6,5-benzothiazepin-4-one]	80%	1580 nM
2380 nM	CC(=O)N1CCC2CC2(c2nnc(-c3cc4c(cc3F)S(=O)(=O)C[C@H](N)C(=O)N4Cc3ccc(Cl)cc3)o2)C1 (stereo partly drawn) [Example 180, (3R)-7-[5-(3-acetyl-3-azabicyclo[4.1.0]heptan-1-yl)-1,3,4-oxadiazol-2-yl]-3-amino-5-[(4-chlorophenyl)methyl]-8-fluoro-1,1-dioxo-2,3-dihydro-1λ^6,5-benzothiazepin-4-one]	103%	5710 nM
1990 nM	CS(=O)(=O)N1CC2CC2(c2nnc(-c3cc4c(cc3F)S(=O)(=O)C[C@H](N)C(=O)N4Cc3ccc(Cl)cc3)o2)C1 (stereo partly drawn) [Example 181, (3R)-3-amino-5-[(4-chlorophenyl)methyl]-8-fluoro-7-[5-(3-methylsulfonyl-3-azabicyclo[3.1.0]hexan-1-yl)-1,3,4-oxadiazol-2-yl]-1,1-dioxo-2,3-dihydro--benzothiazepin-4-one]	107%	7830 nM

SMILES	EC50 (primary human T-cells [2])	Emax (primary human T-cells [1])	EC50 (primary human T-cells [1])
CC(=O)N1CC2CC(c3nnc(-c4cc5c(cc4F)S(=O)(=O)C[C@H](N)C(=O)N5Cc4ccc(Cl)cc4)o3)(C2)C1 [Example 173, (3R)-7-[5-(3-acetyl-3-azabicyclo[3.1.1]heptan-1-yl)-1,3,4-oxadiazol-2-yl]-3-amino-5-1[(4-chlorophenyl)methyl]-8-fluoro-1,1-dioxo-2,3-dihydro-1λ^6,5-benzothiazepin-4-one]	2180 nM	89%	596 nM
CS(=O)(=O)N1CC2CC(c3nnc(-c4cc5c(cc4F)S(=O)(=O)C[C@H](N)C(=O)N5Cc4ccc(Cl)cc4)o3)(C2)C1 [Example 174, (3R)-3-amino-5-[(4-chlorophenyl)methyl]-8-fluoro-7-[5-(3-methylsulfonyl-3-azabicyclo[3.1.1]heptan-1-yl)-1,3,4-oxadiazol-2-yl]-1,1-dioxo-2,3-dihydro-1λ^6,5-benzothiazepin-4-one]	2190 nM	93%	4460 nM
